Reference: US10590422B2, “Anticancer therapeutic intervention” (PHYZAT BIOPHARMACEUTICALS, LDA., priority 2017, dated 2020)

Key:
[1] = test system: human colon cancer HTC-116 cells; assay: Cell proliferation assay (calcein-AM) in human colon cancer HTC-116 cells; assay type: cell-based; conditions: for Decrease in cell proliferation greater the higher the concentration of Injectin in the siRNA:Injectin complexes: Injectin 0.037% to 0.15%; for cell proliferation / proliferation: treatment 6 h; for proliferation: at 72 h, 0.17% Lipofectamine 2000 or 0.1% Injectin, FIGS. 19B and 20B
In short: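 HCT-116 cells in McCoy's 5A with 10% FBS, plated 24 h, then exposed to test items at 37° C, 5% CO2; after serum and antibiotic restoration, grown a further 72 h. Viable cells stained with 2 μM calcein-AM for 30 min, fluorescence read at 485/530 nm; percent cell number = sample/control × 100.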

[2] = test system: human colon cancer HTC-116 cells xenograft tumour; assay: Xenograft tumour model, relative tumour volume, intratumoral injections; assay type: in vivo, NMRI nu/nu mice; conditions: immune deficient mice, subcutaneous HTC-116; 10 μg intratumoral (50 μL) every other day; versus vehicle (Injectin); FIG. 23
Procedure: Human colon cancer HTC-116 cells grown in tissue culture and 10^7 cells per mouse were injected into the hind flank of female NMRI nu/nu mice. Once tumours have developed and tumour volumes reached randomisation criteria, therapy will commence by every other day […], intra-tumoral injections. A vehicle treated group was included in the study as control. Female immunodeficient NMRI nu/nu mice from Charles River were used. The animals were delivered at the age of 4-6 weeks and are used for implantation after at least 1 week of quarantine. […] During the experiments, animals were monitored at least daily. […]
The tumour volume was determined by a two-dimensional measurement with callipers on the day of randomization (Day 0) and then twice weekly. Tumour volumes were calculated according to the following equation: Tumour Vol [mm^3]=a [mm]×b^2 [mm^2]×0.5 […]
The relative volume of an individual tumour on day X (RTVx) was calculated by dividing the absolute volume [mm^3] of the respective tumour on day X (Tx) by the absolute volume of the same tumour on the day of randomization, i. e. on day 0 (T0), multiplied by 100, as shown by the following equation: […]
Group median and range (alternatively geometric mean+/−SEM) of RTVs were calculated, considering only the tumours of animals that were alive on the day in question (for median). […]

[3] = 72 h exposure, 0.1% Injectin, FIG. 14
[4] = 72 h exposure, increasing Injectin (0.037% to 0.15%), FIG. 15

Substance | proliferation (siRNA-LAT1 alone) ([1]; 25 nM, 72 h exposure, Injectin, FIG. 18A) | Effect of 5-fluoruracil upon proliferation in combination with the siRNA ([1]; 5-FU 10 μM, siRNA 25 nM, 72 h, 0.037% Injectin, FIG. 17A) | Effect of 5-fluoruracil upon proliferation in combination with the siRNA ([1]; 5-FU 3 and 10 μM, siRNA 5 and 25 nM, concentration dependent, 72 h, 0.25% Lipofectamine 2000, FIG. 16) | Decrease in cell proliferation greater the higher the concentration of Injectin in the siRNA:Injectin complexes ([1]; 72 h, FIG. 15) | Effect of cisplatin upon proliferation in combination with the siRNA ([1]; Cisp 3 and 10 μM, siRNA 5 and 25 nM, concentration dependent, 72 h, 0.25% Lipofectamine 2000, FIG. 16) | Effect of oxaliplatin upon proliferation in combination with the siRNA ([1]; Oxa 1 and 3 μM, siRNA 5 and 25 nM, concentration dependent, 72 h, 0.25% Lipofectamine 2000, FIG. 16) | cell proliferation [1, 3] | cell proliferation [1, 4] | proliferation [1] | reduction in relative tumour volume [2] | Enhancement of effects of 5-fluoruracil compared with SEQ ID NO: 267/397/398 ([1]; 5-FU 10 μM, 72 h, FIG. 17B) | Effect of siRNA-LAT1 SEQ ID NO: 58/387/388 upon proliferation in combination with the siRNA-ASCT2 ([1]; 72 h, siRNA-ASCT2 at non-efficacious conditions (0.037% Injectin), FIG. 18)
58/387/388 (sense CUUCGCCACCUACCUGCUCAATT; antisense UUGAGCAGGUAGGUGGCGAAGTT; siRNA; sugars by position and backbone not given here; further chemistry not fully specified) | significant decrease | enhanced | significantly enhanced | particularly evident | significantly enhanced | significantly enhanced | decreased | decreased | significantly decreased | statistically significant |  | 
278/403/404 (sense UGCCACGGUCGCCUCUGAGAATT; antisense UUCUCAGAGGCGACCGUGGCATT; siRNA; sugars by position and backbone not given here; further chemistry not fully specified) |  |  |  | particularly evident |  |  | decreased | decreased | significantly decreased | statistically significant | more marked | enhanced
